Assay results: paper PMC3163123 (Bioorganic & medicinal chemistry, 2011)

What was measured:
[1] = biological target: T1, recombinant wild-type HIV-1 IN (Human immunodeficiency virus type 1 group M subtype B, UniProt P12497); test: Integrase catalytic activity assay, 3′-processing; format: biochemical
[2] = biological target: T1, recombinant wild-type HIV-1 IN; test: biochemical; format: biochemical
H630 colon cancer cells = test: MTT cytotoxicity assay; format: cell-based; details: at the concentration of up to 40 μM

SMILES | IC50 [1] | IC50 [2] | further results
O=C(O)c1cccc(OCc2ccccc2)c1O [Compound 3a, 3-(Benzyloxy)-2-hydroxybenzoic acid] | > 100 µM | > 100 µM | –
O=C(O)c1cccc(OCc2ccc(F)cc2)c1O [Compound 3b, 3-(4-Fluorobenzyloxy)-2-hydroxybenzoic acid] | > 100 µM | > 100 µM | –
O=C(O)c1cccc(OCc2ccc3ccccc3c2)c1O [Compound 3c, 3-((Naphthalen-2-yl)methoxy)-2-hydroxybenzoic acid] | > 100 µM | – | –
O=C(O)c1ccc(OCc2ccccc2)cc1O [Compound 3d, 4-(Benzyloxy)-2-hydroxybenzoic acid] | > 100 µM | > 100 µM | –
O=C(O)c1ccc(OCc2ccc(F)cc2)cc1O [Compound 3e, 4-(4-Fluorobenzyloxy)-2-hydroxybenzoic acid] | > 100 µM | > 100 µM | –
O=C(O)c1cc(OCc2ccccc2)ccc1O [Compound 3f, 5-(Benzyloxy)-2-hydroxybenzoic acid] | > 100 µM | > 100 µM | –
O=C(O)c1cc(OCc2ccc(F)cc2)ccc1O [Compound 3g, 5-(4-Fluorobenzyloxy)-2-hydroxybenzoic acid] | > 100 µM | > 100 µM | –
O=C(O)c1c(O)cccc1OCc1ccccc1 [Compound 3h, 2-(Benzyloxy)-6-hydroxybenzoic acid] | > 100 µM | > 100 µM | –
O=C(O)c1c(O)cccc1OCc1ccc(F)cc1 [Compound 3i, 2-(4-Fluorobenzyloxy)-6-hydroxybenzoic acid] | > 100 µM | > 100 µM | –
O=C(O)c1c(O)cccc1OCc1ccc2ccccc2c1 [Compound 3j, 2-((Naphthalen-2-yl)methoxy)-6-hydroxybenzoic acid] | > 100 µM | – | –
O=C(NO)c1cccc(OCc2ccc(F)cc2)c1O [Compound 4a, 3-(4-fluorobenzyloxy)-N,2-dihydroxybenzamide] | > 100 µM | > 100 µM | –
O=C(NO)c1ccc(OCc2ccc(F)cc2)cc1O [Compound 4b, 4-(4-fluorobenzyloxy)-N,2-dihydroxybenzamide] | > 100 µM | – | –
O=C(NO)c1cc(OCc2ccc(F)cc2)ccc1O [Compound 4c, 5-(4-fluorobenzyloxy)-N,2-dihydroxybenzamide] | > 100 µM | – | –
O=C(NO)c1c(O)cccc1OCc1ccc(F)cc1 [Compound 4d, 2-(4-fluorobenzyloxy)-N,6-dihydroxybenzamide] | > 100 µM | – | –
O=C(NCc1ccc(F)cc1)c1cccc(O)c1O [Compound 5a, N-(4-Fluorobenzyl)-2,3-dihydroxybenzamide] | – | – | cytotoxicity in H630 cells (H630 colon cancer cells): not cytotoxic
O=C(NCc1ccc(F)cc1)c1cccc(OCc2ccccc2)c1O [Compound 5b, 3-(Benzyloxy)-N-(4-fluorobenzyl)-2-hydroxybenzamide] | > 333 µM | – | cytotoxicity in H630 cells (H630 colon cancer cells): not cytotoxic
O=C(NCc1cccc2ccccc12)c1cccc(O)c1O [Compound 5c, 2,3-Dihydroxy-N-(naphthalen-1-ylmethyl)benzamide] | > 100 µM | – | –

SMILES | IC50 [1] | IC50 [2] | further results
O=C(NCc1ccc(F)c(F)c1)c1cccc(O)c1O [Compound 5d, N-(3,4-Difluorobenzyl)-2,3-dihydroxybenzamide] | > 100 µM | – | –
O=C(Nc1ccc2[nH]ccc2c1)c1cccc(O)c1O [Compound 5g, 2,3-Dihydroxy-N-(1H-indol-5-yl)benzamide] | > 100 µM | – | –
O=C(NCc1ccc(-c2cccs2)cc1)c1cccc(O)c1O [Compound 5j, 2,3-Dihydroxy-N-(4-(thiophen-2-yl)benzyl)benzamide] | > 100 µM | – | –
O=C(NC1CCNCC1)c1cccc(O)c1O [Compound 5k, 2,3-Dihydroxy-N-(piperidin-4-yl)benzamide] | > 100 µM | > 100 µM | –
O=C(NC1CCCCC1)c1cccc(O)c1O [Compound 5l, N-Cyclohexyl-2,3-dihydroxybenzamide] | > 100 µM | > 100 µM | –
O=C(NCC1CCCCC1)c1cccc(O)c1O [Compound 5m, N-(Cyclohexylmethyl)-2,3-dihydroxybenzamide] | > 100 µM | – | –
CNC(=O)Cc1ccccc1CNC(=O)c1cccc(O)c1O [Compound 5n, 2,3-Dihydroxy-N-(2-(2-(methylamino)-2-oxoethyl)benzyl)benzamide] | > 100 µM | – | –
CNC(=O)c1cc(F)ccc1CNC(=O)c1cccc(O)c1O [Compound 5o, N-(4-Fluoro-2-(methylcarbamoyl)benzyl)-2,3-dihydroxybenzamide] | > 100 µM | – | IN / strand transfer inhibitory potency [2]: loss of IN inhibitory potency
O=C(NCc1ccc(F)cc1)c1cc(S(=O)(=O)N2CCCCC2)cc(O)c1O [Compound 5p, N-(4-Fluoro-benzyl)-2,3-dihydroxy-5-(piperidine-1-sulfonyl)-benzamide] | – | – | selectivity for the strand transfer over the 3′-processing reaction ([2]; ratio of IC50 values): more than 40 fold
CNS(=O)(=O)c1cc(O)c(O)c(C(=O)NCc2ccc(F)cc2)c1 [Compound 5q, N-(4-Fluorobenzyl)-2,3-dihydroxy-5-(N-methylsulfamoyl)benzamide] | > 100 µM | – | –
O=C(NCc1ccco1)c1cc(S(=O)(=O)N2CCCCC2)cc(O)c1O [Compound 5s, N-(Furan-2-ylmethyl)-2,3-dihydroxy-5-(piperidin-1-ylsulfonyl)benzamide] | > 100 µM | – | –
O=C(NCc1cccs1)c1cc(S(=O)(=O)N2CCCCC2)cc(O)c1O [Compound 5v, N-(Thiophen-2-ylmethyl)-2,3-dihydroxy-5-(piperidin-1-ylsulfonyl)benzamide] | > 100 µM | – | –
CS(=O)(=O)Nc1cc(O)c(O)c(C(=O)NCc2ccc(F)cc2)c1 [Compound 5w, N-(4-Fluorobenzyl)-2,3-dihydroxy-5-(methylsulfonamido)benzamide] | > 100 µM | – | –
CN(C)Cc1ccc(C(=O)NCc2ccc(F)cc2)c(O)c1O [Compound 6a, 4-((Dimethylamino)methyl)-N-(4-fluorobenzyl)-2,3-dihydroxybenzamide] | > 100 µM | – | –
CN(C)Cc1ccc(C(=O)NCc2ccco2)c(O)c1O [Compound 6b, 4-((Dimethylamino)methyl)-N-(furan-2-ylmethyl)-2,3-dihydroxybenzamide] | > 100 µM | – | –
COc1cc(S(=O)(=O)N2CCCCC2)cc(C(=O)NCc2ccco2)c1O [Compound 6c, N-(Furan-2-ylmethyl)-2-hydroxy-3-methoxy-5-(piperidin-1-ylsulfonyl)benzamide] | > 100 µM | > 100 µM | IN / strand transfer inhibitory potency [2]: severe loss of potency
Nc1cccc(C(=O)NCc2ccco2)c1O [Compound 6d, 3-Amino-N-(furan-2-ylmethyl)-2-hydroxybenzamide] | > 100 µM | > 100 µM | IN / strand transfer inhibitory potency [2]: severe loss of potency
